Data: patent US7943774B2 (priority 2008, dated 2011)

Test: log P (pH2.3)
Assay type: physicochemical
Settings: for chromatographic logP: reversed-phase HPLC column (C18)
[1] = method [b]: LC-MS, acidic range, pH 2.7, 0.1% aqueous formic acid and acetonitrile
[2] = method [c]: LC-MS, neutral range, pH 7.8, 0.001 molar aqueous ammonium bicarbonate and acetonitrile
[3] = method [b]: LC-MS, acidic range, pH 2.7, 0.1% aqueous formic acid and acetonitrile, HPLC on reversed-phase C 18
[4] = method [c]: LC-MS, neutral range, pH 7.8, 0.001 molar aqueous ammonium bicarbonate solution and acetonitrile, HPLC on reversed-phase C 18

O=C(Cc1nc2ccccc2s1)N1CCC(c2nc(CCc3ccccc3)cs2)CC1 [Example I-71, 2-(1,3-Benzothiazol-2-yl)-1-{4-[4-(2-phenylethyl)-1,3-thiazol-2-yl]piperidin-1-yl}ethanone]
chromatographic logP [1]: 3.68

Cc1nc(C2CCN(C(=O)Cn3nc(C(F)(F)F)cc3C)CC2)sc1CC(C)C [Example I-73]
log p [1]: 3.75^[b]

Cc1cc(C)n(CC(=O)N2CCC(c3nc(C#Cc4cccc5ccccc45)cs3)CC2)n1 [Example I-74]
log p [2]: 3.85^[c]

Cc1cc(C)n(CC(=O)N2CCC(c3nc(/C=C\c4cccc5ccccc45)cs3)CC2)n1 [Example I-76]
log p [1]: 3.73^[b]

Cc1cc(C)n(CC(=O)N2CCC(c3nc(/C=C/c4cccc5ccccc45)cs3)CC2)n1 [Example I-77]
log p [1]: 3.58^[b]

Cc1cc(C(F)(F)F)nn1CC(=O)N1CCC(c2nc(CCc3ccccc3)c(Br)s2)CC1 [Example I-78, 1-{4-[5-Bromo-4-(2-phenylethyl)-1,3-thiazol-2-yl]piperidin-1-yl}-2-[5-methyl-3-(trifluoromethyl)-1H-pyrazol-1-yl]ethanone]
chromatographic logP [1]: 4.71

Cc1cc(C)n(CC(=O)N2CCC(c3nc(CCc4cccc5ccccc45)cs3)CC2)n1 [Example I-79]
log p [2]: 3.39^[c]

Cc1cc(C)n(CC(=O)N2CCC(c3nc(CCCC(C)c4ccccc4)cs3)CC2)n1 (stereo not shown) [Example I-83]
log p [1]: 3.83^[b]

Cc1cc(C)n(CC(=O)N2CCC(c3nc(/C=C/c4ccccc4)cs3)CC2)n1 [Example I-84]
log p [1]: 3.04^[b]

Cc1cc(C)n(CC(=O)N2CCC(c3nc(/C=C/CC(C)c4ccccc4)cs3)CC2)n1 (stereo not shown) [Example I-85]
log p [2]: 3.83^[c]

C#Cc1csc(C2CCN(C(=O)Cn3nc(C(F)(F)F)cc3C)CC2)n1 [Example I-86, 1-[4-(4-Ethynyl-1,3-thiazol-2-yl)piperidin-1-yl]-2-[5-methyl-3-(trifluoromethyl)-1H-pyrazol-1-yl]ethanone]
chromatographic logP [1]: 2.57

Cc1cc(C(F)(F)F)nn1CC(=O)N1CCC(c2nc(/C=C/c3cccc(C(F)(F)F)c3)cs2)CC1 [Example I-94]
log p [1]: 4.46^[b]

Cc1cc(C)n(CC(=O)N2CCC(c3nc(/C=C/c4cccc(C(F)(F)F)c4)cs3)CC2)n1 [Example I-96]
log p [1]: 3.56^[b]

O=C(Cc1c(F)ccc(F)c1F)N1CCC(c2nc(C#Cc3cccc4ccccc34)cs2)CC1 [Example I-97]
log p [1]: 4.71^[b]

Cc1cc(C(F)(F)F)nn1CC(=O)N1CCC(c2nc(C#Cc3ccccc3)cs2)CC1 [Example I-99]
log p [1]: 3.82^[b]

Cc1cc(C(F)(F)F)nn1CC(=O)N1CCC(c2nc(C#Cc3ccccc3Cl)cs2)CC1 [Example I-101]
log p [1]: 4.12^[b]

Cc1cc(C(F)(F)F)nn1CC(=O)N1CCC(c2nc(C#Cc3ccc(Cl)cc3)cs2)CC1 [Example I-102]
log p [1]: 4.37^[b]

COc1ccc(C#Cc2csc(C3CCN(C(=O)Cn4nc(C(F)(F)F)cc4C)CC3)n2)c(OC)c1 [Example I-104]
log p [1]: 3.67^[b]

Cc1cc(C(F)(F)F)nn1CC(=O)N1CCC(c2nc(C#Cc3ccc(Cl)cc3Cl)cs2)CC1 [Example I-105]
log p [1]: 4.72^[b]

COc1ccc(OC)c(C#Cc2csc(C3CCN(C(=O)Cn4nc(C(F)(F)F)cc4C)CC3)n2)c1 [Example I-106]
log p [1]: 3.65^[b]

CCc1cc(CC)n(CC(=O)N2CCC(c3nc(CCc4cccc5ccccc45)cs3)CC2)n1 [Example I-107]
log p [1]: 4.04^[b]

CCc1cc(C(F)(F)F)nn1CC(=O)N1CCC(c2nc(CCc3cccc4ccccc34)cs2)CC1 [Example I-108]
log p [1]: 4.65^[b]

O=C(Cn1nc(C(F)F)cc1C(F)F)N1CCC(c2nc(CCc3cccc4ccccc34)cs2)CC1 [Example I-109]
log p [1]: 4.25^[b]

CC(C)(C)c1cc(C(F)(F)F)n(CC(=O)N2CCC(c3nc(CCc4cccc5ccccc45)cs3)CC2)n1 [Example I-110]
log p [1]: 5.36^[b]

CC(C)(C)c1cc(C(F)(F)F)nn1CC(=O)N1CCC(c2nc(CCc3cccc4ccccc34)cs2)CC1 [Example I-111]
log p [1]: 5.14^[b]

CC(C)(C)c1cc(C(F)(F)C(F)(F)F)n(CC(=O)N2CCC(c3nc(CCc4cccc5ccccc45)cs3)CC2)n1 [Example I-112]
log p [1]: 5.78^[b]

CC(C)(C)c1cc(C(F)(F)C(F)(F)F)nn1CC(=O)N1CCC(c2nc(CCc3cccc4ccccc34)cs2)CC1 [Example I-113]
log p [1]: 5.54^[b]

O=C(Cn1nc(C(F)(F)F)cc1C(F)(F)F)N1CCC(c2nc(C#Cc3cccc4ccccc34)cs2)CC1 [Example I-114]
log p [1]: 5.03^[b]

CCc1cc(CC)n(CC(=O)N2CCC(c3nc(C#Cc4cccc5ccccc45)cs3)CC2)n1 [Example I-115]
log p [1]: 4.2^[b]

CCc1cc(C(F)(F)F)nn1CC(=O)N1CCC(c2nc(C#Cc3cccc4ccccc34)cs2)CC1 [Example I-116]
log p [1]: 4.8^[b]

O=C(Cn1nc(C(F)F)cc1C(F)F)N1CCC(c2nc(C#Cc3cccc4ccccc34)cs2)CC1 [Example I-117]
log p [1]: 4.41^[b]

CC(C)(C)c1cc(C(F)(F)F)n(CC(=O)N2CCC(c3nc(C#Cc4cccc5ccccc45)cs3)CC2)n1 [Example I-118]
log p [1]: 5.48^[b]

CC(C)(C)c1cc(C(F)(F)F)nn1CC(=O)N1CCC(c2nc(C#Cc3cccc4ccccc34)cs2)CC1 [Example I-119]
log p [1]: 5.14^[b]

CC(C)(C)c1cc(C(F)(F)C(F)(F)F)nn1CC(=O)N1CCC(c2nc(C#Cc3cccc4ccccc34)cs2)CC1 [Example I-120]
log p [1]: 5.59^[b]

CC(C)c1cc(C(F)(F)F)n(CC(=O)N2CCC(c3nc(CCc4cccc5ccccc45)cs3)CC2)n1 [Example I-121]
log p [1]: 4.89^[b]

CC(C)c1cc(C(F)(F)F)n(CC(=O)N2CCC(c3nc(C#Cc4cccc5ccccc45)cs3)CC2)n1 [Example I-122]
log p [1]: 4.99^[b]

Cc1cc(C(F)(F)F)nn1CC(=O)N1CCC(c2nc(CCc3ccc(Cl)cc3Cl)cs2)CC1 [Example I-123]
log p [1]: 4.74^[b]
log p [2]: 4.77^[c];

O=C(Cc1cc(Br)ccc1Br)N1CCC(c2nc(C#Cc3cccc4ccccc34)cs2)CC1 [Example I-124]
log p [1]: 5.47^[b]
log p [2]: 5.52^[c];

C#Cc1csc(C2CCN(C(=O)Cc3cc(Cl)ccc3Cl)CC2)n1 [Example I-125]
log p [1]: 3.08^[b]

Cc1ccccc1CCc1csc(C2CCN(C(=O)Cn3nc(C(F)(F)F)cc3C)CC2)n1 [Example I-126]
log p [1]: 4.08^[b]
log p [2]: 4.16^[c];

Cc1cc(C(F)(F)F)nn1CC(=O)N1CCC(c2nc(CCc3c(F)cccc3F)cs2)CC1 [Example I-128]
log p [1]: 3.9^[b]
log p [2]: 3.97^[c],

Cc1cc(C(F)(F)F)nn1CC(=O)N1CCC(c2nc(CCC3CCCCC3)cs2)CC1 [Example I-132]
log p [1]: 5.01^[b]

Cc1cc(C(F)(F)F)nn1CC(=O)N1CCC(c2nc(CCC3CCCc4ccccc43)cs2)CC1 (stereo not shown) [Example I-133]
log p [1]: 4.95^[b]

O=C(Cn1nc(C(F)(F)F)cc1C(F)(F)F)N1CCC(c2nc(CCC3CCCCC3)cs2)CC1 [Example I-140]
log p [3]: 5.76^[b]

O=C(Cn1nc(C(F)F)cc1C(F)F)N1CCC(c2nc(CCC3CCCCC3)cs2)CC1 [Example I-148]
log p [3]: 4.87^[b]

O=C(Cn1nc(C(F)F)cc1C(F)F)N1CCC(c2nc(CCC3CCCc4ccccc43)cs2)CC1 (stereo not shown) [Example I-149]
log p [3]: 4.78^[b]

Cc1ccc(C)c(CC(=O)N2CCC(c3nc(CCc4ccccc4C)cs3)CC2)c1 [Example I-158]
log p [3]: 4.67^[b]
log p [4]: 4.77^[c];

Cc1ccc(C)c(CC(=O)N2CCC(c3nc(CCc4c(F)cccc4F)cs3)CC2)c1 [Example I-160]
log p [3]: 4.48^[b]
log p [4]: 4.55^[c];

Cc1ccccc1C#Cc1csc(C2CCN(C(=O)Cn3nc(C(F)(F)F)cc3C)CC2)n1 [Example I-206]
log p [3]: 4.15^[b]
log p [4]: 4.15^[c];

Cc1cc(C(F)(F)F)nn1CC(=O)N1CCC(c2nc(C#Cc3ccccc3Br)cs2)CC1 [Example I-207]
log p [3]: 4.16^[b]
log p [4]: 4.19^[c];

Cc1cc(C(F)(F)F)nn1CC(=O)N1CCC(c2nc(C#Cc3c(F)cccc3F)cs2)CC1 [Example I-208]
log p [3]: 3.83^[b]
log p [4]: 3.86^[c];

Cc1cccnc1C#Cc1csc(C2CCN(C(=O)Cn3nc(C(F)(F)F)cc3C)CC2)n1 [Example I-210]
log p [3]: 2.72^[b]
log p [4]: 2.95^[c];

Cc1ccccc1C#Cc1csc(C2CCN(C(=O)Cn3nc(C(F)(F)F)cc3C(F)(F)F)CC2)n1 [Example I-212]
log p [3]: 4.73^[b]

O=C(Cn1nc(C(F)(F)F)cc1C(F)(F)F)N1CCC(c2nc(C#Cc3ccccc3Br)cs2)CC1 [Example I-213]
log p [3]: 4.74^[b]

O=C(Cn1nc(C(F)(F)F)cc1C(F)(F)F)N1CCC(c2nc(C#Cc3c(F)cccc3F)cs2)CC1 [Example I-214]
log p [3]: 4.4^[b]

Cc1cccnc1C#Cc1csc(C2CCN(C(=O)Cn3nc(C(F)(F)F)cc3C(F)(F)F)CC2)n1 [Example I-216]
log p [3]: 3.37^[b]

Cc1ccccc1C#Cc1csc(C2CCN(C(=O)Cn3nc(C(F)F)cc3C(F)F)CC2)n1 [Example I-218]
log p [3]: 3.99^[b]
log p [4]: 4.02^[c];

O=C(Cn1nc(C(F)F)cc1C(F)F)N1CCC(c2nc(C#Cc3ccccc3Br)cs2)CC1 [Example I-219]
log p [3]: 4.04^[b]
log p [4]: 4.04^[c];

O=C(Cn1nc(C(F)F)cc1C(F)F)N1CCC(c2nc(C#Cc3c(F)cccc3F)cs2)CC1 [Example I-220]
log p [3]: 3.7^[b]
log p [4]: 3.73^[c];

Cc1cccnc1C#Cc1csc(C2CCN(C(=O)Cn3nc(C(F)F)cc3C(F)F)CC2)n1 [Example I-222]
log p [3]: 2.68^[b]
log p [4]: 2.86^[c];

Cc1noc(C)c1C#Cc1csc(C2CCN(C(=O)Cn3nc(C(F)F)cc3C(F)F)CC2)n1 [Example I-223]
log p [3]: 3.09^[b]

Cc1ccccc1C#Cc1csc(C2CCN(C(=O)Cc3cc(Cl)ccc3Cl)CC2)n1 [Example I-224]
log p [3]: 4.91^[b]
